Test results from EP0868914B1, “USE OF A FLAVONOID-CONTAINING EXTRACT OF THE PLANT EUPHORBIA PROSTRATA IN THE MANUFACTURE OF A MEDICAMENT FOR THE TREATMENT OF AN ANORECTIC OR COLONIC DISEASE” (PANACEA BIOTEC LIMITED, priority 1997, dated 1998).
Marks after values point to notes of the source that are not given here.

How the values were obtained:
[1] = tested on: croton oil-induced oedema in mice ears; experiment: Croton oil ear test (oedema), topical; conditions: for Activity Ratio on Molar basis: Indomethacin = 1; for ID50 / ID50 (column head printed: Activity Ratio): croton oil ear test in mice, Italian institute data
[2] = tested on: granulocyte infiltration (MPO activity); experiment: Granulocyte infiltration (MPO activity) in the croton oil ear test; assay type: in vivo, mice; conditions: One unit = 1 nMol/min. of tetraguaiacol formed at 25°C
[3] = tested on: Carrageenan-induced Mice Paw Oedema; experiment: Carrageenan-induced paw oedema in mice, topical application; assay type: in vivo; conditions: topical Indomethacin
Description: The duration of action of topical preparation was determined by studying the effects of different concentrations of the drug on oedema over a period of 8 hr. As evident from the Table 3, the peak inhibition was observed after 3-4 hours of carrageenan injection begining at 2 hr for the extract at lower concentrations (0.5-2.0%) and 1 hr. at 4 % concentration.

[4] = tested on: Carrageenan-induced Pedal Oedema; experiment: Carrageenan-induced pedal oedema in rats (oral extract, intraperitoneal indomethacin); assay type: in vivo; conditions: for Oedema + SEM (%): intraperitoneal
[5] = 1.26µMol, 6 hours after treatment
[6] = 1.26µMol, 18 hours after treatment
[7] = 1.26µMol, 30 hours after treatment

## C[C@@H]1O[C@@H](OC[C@H]2O[C@@H](Oc3c(-c4ccc(O)c(O)c4)oc4cc(O)cc(O)c4c3=O)[C@H](O)[C@@H](O)[C@@H]2O)[C@H](O)[C@H](O)[C@H]1O [Rutin]
[1]
  Activity Ratio on Molar basis: 0.28
  ID50: 282 µg/ear
  ID50 (column head printed: Activity Ratio): 0.462 µmol/ear

## O=c1c(O)c(-c2ccc(O)c(O)c2)oc2cc(O)cc(O)c12 [Quercetin]
[1]
  Activity Ratio on Molar basis: 0.65
  ID50: 60.3 µg/ear
  ID50 (column head printed: Activity Ratio): 0.200 µmol/ear

## O=c1cc(-c2ccc(O)cc2)oc2cc(O[C@@H]3O[C@H](CO)[C@@H](O)[C@H](O)[C@H]3O)cc(O)c12 [Apigenin-7-glucoside]
[1]
  Activity Ratio on Molar basis: 0.32
  ID50: 175 µg/ear
  ID50 (column head printed: Activity Ratio): 0.404 µmol/ear

## C[C@]12CCC(=O)C=C1CC[C@@H]1[C@@H]2[C@@H](O)C[C@@]2(C)[C@H]1CC[C@]2(O)C(=O)CO [Hydrocortisone]
[1]; 0.41 µMol, 6 hours after treatment
  Effect on Oedema Development: 0.5 ± 0.2 mg
[1]; 0.41 µMol, 18 hours after treatment
  Effect on Oedema Development: 0.7 ± 0.1 mg
[1]; 0.41 µMol, 30 hours after treatment
  Effect on Oedema Development: 0.7 ± 0.1 mg
[1]; 18 hours after treatment
  antiinflammatory activity (oedema) in words: maintain their effect to a certain extent
[1]
  Activity Ratio on Molar basis: 14.00
  ID50: 3.3 µg/ear
  ID50 (column head printed: Activity Ratio): 0.009 µmol/ear
[2]; 0.41µMol, 6 hours after treatment
  Effect on granulocyte infiltration (MPO activity): 0.0±0.2 unit
[2]; 0.41µMol, 18 hours after treatment
  Effect on granulocyte infiltration (MPO activity): 6.9±2.1 unit
[2]; 0.41µMol, 30 hours after treatment
  Effect on granulocyte infiltration (MPO activity): 8.2±2.4 unit

## COc1ccc2c(c1)c(CC(=O)O)c(C)n2C(=O)c1ccc(Cl)cc1 [Indomethacin]
[1]; [5]
  Effect on Oedema Development: 0.0 ± 0.1 mg
[1]; [6]
  Effect on Oedema Development: 3.1 ± 0.4 mg
[1]; [7]
  Effect on Oedema Development: 0.5 ± 0.1 mg
[1]; 18 hours after treatment
  antiinflammatory activity (oedema) in words: lose their antiinflammatory activity
[1]
  Activity Ratio on Molar basis: 1.00
  ID50: 46.1 µg/ear
  ID50 (column head printed: Activity Ratio): 0.126 µmol/ear
[2]; [5]
  Effect on granulocyte infiltration (MPO activity): 0.0±0.1 unit
[2]; [6]
  Effect on granulocyte infiltration (MPO activity): 10.0±1.6 unit
[2]; [7]
  Effect on granulocyte infiltration (MPO activity): 6.8±3.4 unit
[3]; Dose 1.00 %, +60 m
  inhibition of Carrageenan-induced Mice Paw Oedema: 18.2** %
[3]; Dose 1.00 %, +120 m
  inhibition of Carrageenan-induced Mice Paw Oedema: 24.0** %
[3]; Dose 1.00 %, +180 m
  inhibition of Carrageenan-induced Mice Paw Oedema: 29.0** %
[3]; Dose 1.00 %, +240 m
  inhibition of Carrageenan-induced Mice Paw Oedema: 21.2** %
[3]; Dose 1.00 %, +360 m
  inhibition of Carrageenan-induced Mice Paw Oedema: 9.6** %
[3]; Dose 1.00 %, +480 m
  inhibition of Carrageenan-induced Mice Paw Oedema: 4.6%
[3]; Dose 2.00 %, +60 m
  inhibition of Carrageenan-induced Mice Paw Oedema: 24.2* %
[3]; Dose 2.00 %, +120 m
  inhibition of Carrageenan-induced Mice Paw Oedema: 26.0* %
[3]; Dose 2.00 %, +180 m
  inhibition of Carrageenan-induced Mice Paw Oedema: 41.9*** %
[3]; Dose 2.00 %, +180 m, listed as indomethacin
  inhibition of Carrageenan-induced Mice Paw Oedema: 41.9%
[3]; Dose 2.00 %, +240 m
  inhibition of Carrageenan-induced Mice Paw Oedema: 36.4* %
[3]; Dose 2.00 %, +360 m
  inhibition of Carrageenan-induced Mice Paw Oedema: 11.5* %
[3]; Dose 2.00 %, +480 m
  inhibition of Carrageenan-induced Mice Paw Oedema: 10.6%
[4]; 1mg/kg, i.p.
  inhibition of oedema: 74%
[4]; 0.5 mg/Kg, +30 min
  Oedema + SEM (%): 13.6±4.0%
[4]; 0.5 mg/Kg, +60 min
  Oedema + SEM (%): 18.9±4.0%
[4]; 0.5 mg/Kg, +120 min
  Oedema + SEM (%): 28.8±4.2%
[4]; 1.0 mg/Kg, +30 min
  Oedema + SEM (%): 9.3±2.3%
[4]; 1.0 mg/Kg, +60 min
  Oedema + SEM (%): 12.3±2.2%
[4]; 1.0 mg/Kg, +120 min
  Oedema + SEM (%): 16.4±1.6%
[4]; 2.0 mg/Kg, +30 min
  Oedema + SEM (%): 8.2±1.5%
[4]; 2.0 mg/Kg, +60 min
  Oedema + SEM (%): 12.8±1.8%
